How the values were obtained:
[1] = tested on: 20-HETE production in MC38 cells; assay: 20-HETE production in cultured MC38 cells (LC/MS/MS); assay type: cell-based, mouse; conditions: HET0016 1 μM vs vehicle; FIG. 1C
Description: (§1) MC38 cells were maintained in complete medium consisting of DMEM supplemented with 10% heat-inactivated FBS, […] streptomycin, and 100 U/ml penicillin in a humidified incubator at 37° C. with 5% CO2. Sub-confluent cultured cells were harvested by washing T-75 flasks two times with Ca^2+- and Mg^2+-free Earl's balanced salts, followed by 2 min incubation with 0.25% trypsin-EDTA (Life Technologies, Grand Island, N.Y.) at 37° C. A human cerebral microvascular endothelial cell line (HCMECL) was used in the studies (University of Georgia, Athens, Ga.). Primary rat brain microvascular endothelial cells (RBMEC) were prepared as described previously (Prakash, et al., Diabetes 61:97 1533-1542 (2012)). HCMECL and RBMEC were maintained in MCDB-131 complete medium (VEC Technologies, Rensselaer, N.Y.).
(§2) MC38 cells were collected using 0.25% trypsin-EDTA. After centrifugation, a cell pallet was re-suspended in 300 μl of PBS. […] The concentrations of 20-HETE in media and cell lysates were determined by Liquid Chromatography—Tandem Mass Spectrometry (LC/MS/MS) using 15(S)-HETE-d8 as an internal standard as described previously (Chen, et al., Prostaglandins Other Lipid Mediat 104-105:42-48 (2013)). […] The concentrations of PGE2 in media and cell lysates were determined by an ELISA kit (Cayman Chemical, Ann Arbor, Mich.) according to the manufacturer's instructions.

[2] = tested on: MC38 cells; assay: MC38 cell growth by counting cell numbers; assay type: cell-based, mouse; conditions: single agent 100 nM to 10 μM, 48 h, serum-free medium + EGF 200 ng/ml; FIG. 3A/3B
Description: For cell growth experiments, cells were seeded onto 6-well plates at a density of 2.5×10^5 cells/well. […] After 48 h of treatment, cells were collected using 0.25% trypsin-EDTA and counted using a hemocytometer.

[3] = tested on: MC38 cells; assay: MC38 cell proliferation by BrdU ELISA assay; assay type: cell-based, mouse; conditions: 48 h
Description: MC38 cells were seeded at a density of 5×10^3 cells/well in 10% FBS/DMEM in 96-well plates. […] BrdU ELISA assay was done using an ELISA kit (CycLex Co., Nagano, Japan). Briefly, 3 h before assay, BrdU (10 μM final concentration) was added to the 96-well plates containing MC38 cells given different incubation conditions. After 3 h of incubation, the culture medium was removed, and fixed with Fixing/Denaturing solution (200 μl/well) at room temperature for 30 min. After removing Fixing/Denaturing solution, plates were incubated with monoclonal anti-BrdU antibody (50 μl/well) at room temperature for 1 h. Plates were washed five times with Wash buffer (200 μl/well), then incubated with the secondary antibody (50 μl/well) at room temperature for 1 h. After removing the secondary antibody and doing a second wash procedure, plates were incubated with Substrate Reagent (50 μl/well) at room temperature for 15 min in the dark. The reaction was then stopped by adding Stop Solution (50 μl/well). The absorbance in each well was measured using a Tecan GENios Plus microplate reader at dual wavelengths of 450/540 nm.

[4] = tested on: subcutaneous MC38 tumors; assay: Tumor growth in MC38 colon tumor-bearing C57BL/6J mice; assay type: in vivo, mouse; conditions: HET0016 5 or 10 mg/kg/day i.p.; rofecoxib 50 mg/l in drinking water; combination compared with rofecoxib alone; FIG. 5
Description: 8-week-old male C57BL/6J mice were subcutaneously injected with MC38 cells (1.4×10^6 cells/mouse) to induce colon tumor. […] All treatments were done for 21 days. Rofecoxib (50 mg/l) was suspended in drinking water containing 1% (vol/vol) PEG 400 (Sigma-Aldrich) and 0.5% (wt/vol) 2-hydroxypropyl-β-cyclodextrin (Sigma-Aldrich). The formula and dose of rofecoxib were prepared according to a previous publication (Liu, et al., Proc Natl Acad Sci USA 107: 17017-17022 (2010)). Tumor growth rates were monitored by measuring tumor volume with a sliding caliper on day 9 or day 18 after cell-implantation. The volumes of tumors were calculated from the major dimension (L) and minor dimension (S), using the equation: tumor volume=L×(S)2/2 as described previously (Konson, et al., Cancer Gene Ther 11: 830-840 (2004)).

[5] = tested on: plasma eicosanoids; assay: Plasma 20-HETE and other eicosanoids in MC38 tumor mice (LC/MS/MS); assay type: in vivo, mouse; conditions: 3 weeks; for Plasma 20-HETE levels / Plasma levels of EETs/DHETs, 5-HETE, 8-HETE, 11-HETE, 15-HETE: rofecoxib 50 mg/l, HET0016 5 mg/kg/day i.p. given with rofecoxib, FIG. 6A
Description: After 3 weeks of different treatments, MC38 tumor mice were anesthetized with 2% isoflurane delivered by an anesthesia apparatus. About 0.6 ml of venous blood was collected from mice using a 1-ml syringe containing sodium citrate. The samples were centrifuged at 2,400×g for 15 min to obtain platelet-free plasma. To stabilize eicosanoids in plasma samples, 10 μl combinations of antioxidants (EDTA (0.2 mg/l), butylated hydroxytoluene (0.2 mg/l), and triphenyphosphine (2 mg/l)) were added to each plasma sample. The plasma samples were stored at −80° C. until LC/MS/MS analysis. Plasma samples were spiked with 10 ng of 15(S)-HETE-d8, applied to preconditioned SEP Pak C18 cartridges (100 mg adsorbent, Waters), and washed with water followed by hexane. Eicosanoids were eluted with 500 μl of ethyl acetate-hexane (3:1). The eluate was dried under nitrogen and reconstituted in methanol: 25 mM aqueous ammonium acetate (7:3). The extracted and reconstituted sample was subjected to HPLC (Shimadzu Prominence XR system) on a Max-RP C18 column (2×150 mm, 3 μu, Phenomenex) isocratically eluted with methanol:13 mM aqueous ammonium acetate (8:2) at a flow rate of 0.4 ml/min. The eluent was monitored for 20-HETE, EETs (5,6-EET, 8,9-EET, 11,12-EET, 14,15-EET), DHETs (5,6-DHET, 8,9-DHET, 11,12-DHET, 14,15-DHET), 5-HETE, 8-HETE, 11-HETE, 15-HETE, PGJ2, PGE2, TXB2, and 15keto-PGE2 by mass spectrometer (QTRAP5500, ABSCIEX) in the negative ion mode using Multiple Reaction Monitoring under optimized conditions. 15(S)-HETE-d8 was used as the internal standard for recovery and quantitation. The concentrations of eicosanoids were determined by comparing the ratio of ion intensity of each eicosanoid versus that of 15(S)-HETE-d8, as described previously (Chen, et al., Prostaglandins Other Lipid Mediat 104-105:42-48 (2013); Maddipati, et al., Prostaglandins Other Lipid Mediat 94:59-72 (2011)).

[6] = tested on: B6 mice subjected to ischemic stroke; assay: Ischemic stroke in B6 mice supplemented with 20-OH PGE2; assay type: in vivo, mouse; conditions: 20-OH PGE2 250 ng/h via osmotic pump, 7 days, vs vehicle
Description: B6 mice were divided into two groups: one supplemented with 20-OH PGE2 (250 ng/h in an osmotic pump) and one given vehicle. After one week of treatment, the mice were subjected to ischemic stroke.
Although 20-OH PGE2 elicits beneficial protective effects in brain endothelial cells under OGD/Rep, the precise role of 20-OH PGE2 in ischemic stroke is still to be defined. To determine the effects of 20-OH PGE2 supplementation on stroke damage, B6 mice were treated with 20-OH PGE2 (Cayman) (administered via an osmotic pump (Alzet) at a dose of 250 ng/h) or vehicle for 7 days. The effects of 20-OH PGE2 on infarct size and neurological deficit after ischemic stroke were examined.

[7] = tested on: PGE2 production in MC38 cells; assay: PGE2 production in MC38 cells (PGE2 ELISA); assay type: cell-based, mouse; conditions: dose response; FIG. 2C
Description: as §1, §2

[8] = Water intake and body weight of treated mice; assay type: in vivo, mouse; conditions: rofecoxib 50 mg/l in drinking water, n=5
Description: In a complementary experiment, the water intake and body weight of mice treated with water, vehicle, and rofecoxib (50 mg/l) was determined. Neither vehicle (3.02±0.17 vs. 3.16±0.16 ml/24 h/mouse, n=5) nor rofecoxib (3.07±0.1 vs. 3.16±0.16 ml/24 h/mouse, n=5) treatment affected water intake. Likewise, there was no significant change of body weight among water (24±1.63 g/mouse, n=5), vehicle (23.8±1.1 g/mouse, n=5), and rofecoxib (24.5±1.0 g/mouse, n=5) group.

[9] = tested on: Cyp4a; assay: Cyp4a expression in liver and kidney of MC38 tumor mice (Western blot); assay type: in vivo, mouse; conditions: 3-week rofecoxib treatment, FIG. 6C
[10] = tested on: MC38 tumor mice subjected to thromboembolic stroke; assay: Thromboembolic ischemic stroke in MC38 tumor mice: neurovascular injury and functional outcome; assay type: in vivo, mouse
From the text: Age-matched non-tumor mice were usedas control. At the end of the treatment period, mice were subjected to thromboembolic stroke. Under isoflurane anesthesia, the right common carotid artery, the right external carotid artery (ECA), and the right internal carotid artery were exposed through a middle incision on the ventral side of the neck. A PE 10 catheter containing a fibrin-rich clot was gently inserted from the ECA stump into the distal internal carotid artery just proximal to the origin of the middle cerebral artery (MCA). Each clot (˜1 cm), prepared from a donor mouse, was injected with 75 μl of sterile PBS; after 2 min, the catheter was withdrawn as described previously (Hoda, et al., Exp Transl Stroke Med 3:16 (2011)). Occlusion was confirmed by a ≧70% drop in cerebral blood flow as compared to the pre-ischemic value. The success rate of thromboembolic MCA occlusion was 95% based on changes in cerebral blood flow. At day 3 after surgery, mice were first evaluated for functional outcome, then sacrificed for evaluation of neurovascular injury including infarct size and bleeding. Extracted brains were analyzed for infarct size in coronal slices of 2 mm thickness, labeled A-G, front to back. Hemorrhagic transformation (HT), secondary bleeding into the brain after ischemic stroke was evaluated by the presence of visible macroscopic bleeding and measured in a binary fashion: yes or no. Number of animals that had HT was reported per group. 2, 3, 5-Triphenyltetrazolium chloride (TTC), a mitochondria stain, was used to outline the infarct area. The captured images were numerically labeled and analyzed using specialized KS300 software. Infarct size was expressed as a percentage of the contralateral hemisphere. Neurologic deficits in mice given different treatments were assessed at 24 h and 72 h after stroke, using a 5-point scale for scoring: 0, no deficit; 1, forelimb flexion deficit on contralateral side; 2, decreased resistance to lateral push and torso turning to the ipsilateral side when held by tail; 3, significant circling to the affected side and reduced capability to bear weight on the affected side; 4, rarely moved spontaneously and preferred to stay at rest.

## CCCCc1ccc(N=CNO)c(C)c1 [HET0016, N-Hydroxy-N′-(4-butyl-2-methylphenyl)formamidine]
[1]
  20-HETE production and secretion in MC38 cell media: effectively blocked 20-HETE production and secretion
[2]
  MC38 cell growth (cell number/well): inhibited cell growth
[3]; 100 nM to 10 μM, serum-free medium + EGF 200 ng/ml, FIG. 4A
  BrdU incorporation into MC38 cells: inhibited the incorporation of BrdU in a concentration dependent manner
[4]
  Tumor size on day 9 post implantation: did not affect tumor size
  Tumor size on day 18 post-implantation: dose-dependently reduced tumor size
[5]
  Plasma 20-HETE levels: selectively reduced plasma 20-HETE levels
  Plasma levels of EETs/DHETs, 5-HETE, 8-HETE, 11-HETE, 15-HETE: without affecting
[5]; HET0016 5 mg/kg/day i.p., FIG. 6B
  Plasma PGJ2, PGE2, TXB2 and 15 keto-PGE2 levels: did not affect

## O=C(O)CCC/C=C\C[C@H]1C(=O)C[C@@H](O)[C@@H]1/C=C/[C@@H](O)CCCCCO [20-OH PGE2]
[6]; FIG. 10A
  Infarct size after ischemic stroke: reduced
[6]; FIG. 10B
  Neurological deficits after ischemic stroke: reduced

## CS(=O)(=O)c1ccc(C2=C(c3ccccc3)C(=O)OC2)cc1 [rofecoxib]
[7]
  PGE2 production in MC38 cells: dose-dependently inhibited PGE2 production
[2]
  MC38 cell growth (cell number/well): inhibited cell growth
[3]; 1 μM (combination 1 μM each, compared with rofecoxib alone), FIG. 4B/4C
  BrdU incorporation into MC38 cells at 1 μM: significantly inhibited BrdU incorporation
[4]
  Tumor size on day 9 post implantation: significantly reduced tumor size
  Tumor size on day 18 post-implantation: significantly reduced tumor size
[8]
  Body weight: 24.5±1.0 g/mouse
[8]; water group 3.16±0.16
  Water intake: 3.07±0.1 ml/24 h/mouse
[5]
  Plasma 20-HETE levels: selectively increased 20-HETE plasma levels
  Plasma levels of EETs/DHETs, 5-HETE, 8-HETE, 11-HETE, 15-HETE: no significant changes
[9]
  cyp4a expression in the liver and kidney: had no effect on cyp4a expression
[10]; 3 weeks treatment, rofecoxib 50 mg/l, HET0016 5 mg/kg/day i.p.
  Mortality after ischemic stroke: ~30%
[10]; C57BL/6J, mouse, in vivo, 3 weeks
  Animals that developed HT: 4 out of the 5
[10]; mouse, in vivo
  Functional outcome (neurological deficit score): neurological deficit scores were higher
[10]; rofecoxib compared to control mice, combination compared to rofecoxib, FIG. 8B
  Infarct size: reduced the size of infarcts

— US9480664B2, “Compositions and methods for treating cancer” (Augusta University Research Institute, Inc., priority 2014, dated 2016)
